Experiments:
NDM-HK [1] = assay: Resistance study: MPC and mutation frequency; format: cell-based, E. coli; conditions: no CBS
NDM-HK PCV = assay: Murine peritonitis infection with NDM-1-negative bacteria; format: in vivo, BALB/c mice; conditions: identical dose of MER, lethal dose of NDM-HK PCV
[2] = system: NDM-K. pneumonia (NDM-1^+); assay: Microdilution MIC/MBC and checkerboard assay; format: cell-based, Klebsiella pneumonia; conditions: NDM-K. pneumonia (NDM-KP)
Method: (§1) MIC values were determined by standard broth micro-dilution method (Clinical and Laboratory Standards Institute (CLSI) M100-S20, 2010)[64]. Briefly, bacterial cells were cultured in LB broth overnight at 37 °C at 250 rpm and the OD was measured at 600 nm (OD600). The bacterial density was adjusted to about 1 × 10^6 CFU mL^−1 and checked by CFU counting on agar plates afterwards. Tested antibiotics or Bi(III) compounds were added triplicately into individual wells of flat-bottomed 96-well plates and performed 2-fold serial dilution, followed by addition of prepared bacterial inocula. The plate was then incubated at 37 °C for overnight. […] The MIC was determined as the lowest concentration of a drug that could inhibit the growth of microorganism by both visual reading and OD reading at 600 nm using a microtiter plate reader.
(§2) Resulting growth (or lack of growth) was examined after overnight culturing and the lowest concentration that inhibits 99.9% of the original culture was taken as MBC.
(§3) Other procedures were kept strictly the same. […] Synergism was defined when FICI ≤ 0.5, indifference was defined when FICI > 0.5 and < 4, and antagonism was defined when FICI≥4[65]. […] All of the determinations were performed at least in triplicate on different days.

NDM-HK [3] = assay: In vitro cell infection assay (MDCK cells); format: cell-based, E. coli; conditions: MOI 200, MER at 2-fold MIC alone, overnight
Method: MDCK cell was cultured in minimum essential Media (MEM) supplemented with fetal bovine serum (FBS, 10%) and grown at 37 °C in 5% CO2-humidified atmosphere for 3 days. About 1.0 × 10^5 MDCK cells were seeded per well in 24-well plates and incubated as described above for 48 h to ensure confluency. Logarithmic cultures of NDM-HK were washed with PBS for three times and re-suspended in MEM/10% FBS resulting in the initial bacterial density of about 2.0 × 10^7 CFU mL^−1. Then, 500 μL of bacterial suspension were added to each well and substituted for the previous MDCK culture medium. The plates were centrifuged at 800 × g for 10 min and then incubated for another 6 h, executing the bacterial infection at multiplicity of infection (MOI) of 200. We then used two infection models for examination, viz, the cell-associated bacterial infection and cell-invaded bacterial infection. The cell-associated bacteria are herein defined as bacteria that attach to, penetrate, or transcytose in MDCK cells, while the cell-invaded bacteria are defined as bacteria that penetrate or transcytose MDCK cells. For the cell-invaded infection, the infected cells were incubated in culture medium supplemented with ciprofloxacin (100 µg mL^−1) for 1 h to remove extracellular bacteria. Then, the treated cells were washed vigorously with PBS for six times and replenished with culture medium. For the cell-associated infection, the infected cells were only washed vigorously with PBS for six times to remove unbound bacteria. The infected MDCK cells were then exposed to either MER or CBS, or their combination for overnight under identical cell culture condition. Cells in the absence of drugs served as a control. The bacterial loads were examined by lysing MDCK cells with 1% Triton X-100 in PBS and serially diluting the resulting lysates to enumerate bacterial colonies by agar plating. The assay was performed in triplicate, repeated three times, and results were expressed as average ± SD.

NDM-BL21 = assay: Microdilution MIC assay; format: cell-based, E. coli; conditions: Escherichia coli, CBS0, read-out: MIC of MER, CBS at 0
From the text: (§4) Other procedures were kept strictly the same.

NDM-Rosetta = assay: Microdilution MIC assay; format: cell-based, E. coli; conditions: Escherichia coli, CBS0, read-out: MIC of MER, CBS at 0
From the text: as §4

NDM-Rosetta OX = assay: Microdilution MIC assay; format: cell-based, E. coli; conditions: Escherichia coli, CBS0, read-out: MIC of MER, CBS at 0, NDM-Rosetta OX (NDM-1 overexpressing); CBS 0 µg mL-1
Method: For the test of NDM-Rosetta OX, the growth condition briefly goes as follow. Overnight culture of NDM-Rosetta was 1000-fold diluted into fresh LB medium and regrew to OD ~0.6. The overexpression of NDM-1 was induced by addition of 1 mM isopropyl β-D-1-thiogalactopyranoside (IPTG) for 4 h at 37 °C. The following susceptibility test was performed as described in the Microdilution MIC and MBC assay section in the methodology by using the resulting bacterial pellets with the supplementation of 200 µM IPTG.
as §4

NDM-HK [4] = assay: Murine peritonitis infection, mucin-assisted model; format: in vivo, BALB/c mice; conditions: 2% mucin, i.p. twice daily
From the text: All experiments were approved by, and performed in accordance with the guidelines approved by Committee on the Use of Live Animals in Teaching and Research (CULATR), the University of Hong Kong. A total of 6–8-week-old, female BALB/c mice (18–22 g) were purchased from Charles River Laboratories, Inc. and were used in all mouse studies. The animals were randomized to cages for each experiment.
In mucin-assisted model, for infection with NDM-1-positive bacteria, an overnight culture of NDM-HK was performed 1:250 dilution in 100 mL LB broth and re-grew to about OD600 0.3 in a 500-mL flask after 2.5 h shaking at 37 °C, 250 rpm. Bacterial pellets were collected and washed by PBS buffer three times for further use. Mice were infected intraperitoneally (i.p.) with a dose of 1 × 10^5 CFU of bacteria in PBS supplemented with 2% mucin. […] Twice-daily treatment via i.p. injection was continued throughout the whole experimental course. For the infection with NDM-1-negative bacteria, all the operations of infection were similar to those used for NDM-HK, except that NDM-HK PCV was used as infection-causing bacteria. […] Twice-daily treatment via i.p. injection was continued throughout the whole experimental course. Body weights and mice survival were monitored till endpoint of the experiment.

[5] = system: NDM-C. freundii (NDM-1^+); assay: Microdilution MIC/MBC and checkerboard assay; format: cell-based, Citrobacter freundii; conditions: NDM-C. freundii (NDM-CF)
Method: as §1, §2, §3

IMP-BL21 (IMP-4^+) = assay: microbe, parasite or virus in culture; format: cell-based, E. coli
Method: as §1, §2, §3

VIM-BL21 (VIM-2^+) = assay: microbe, parasite or virus in culture; format: cell-based, E. coli
Method: as §1, §2, §3

NDM-HK (NDM-1^+) = assay: microbe, parasite or virus in culture; format: cell-based, E. coli; conditions: Escherichia coli
Method: as §1, §2, §3

C208A-Rosetta = assay: Microdilution MIC assay; format: cell-based, E. coli; conditions: Escherichia coli, CBS0, read-out: MIC of MER, CBS at 0
Method: For the test of C208A-Rosetta, the growth condition briefly goes as follow. Overnight culture of C208A-Rosetta was diluted into fresh LB medium (1000-fold) and regrew to OD ~0.6. The overexpression of NDM-1-C208A was induced by addition of 200 μM isopropyl β-D-1-thiogalactopyranoside (IPTG) for 18 h at 25 °C. The following susceptibility test was performed as described in the Microdilution MIC and MBC assay section in the methodology by using the resulting bacterial pellets with the supplementation of 200 μM IPTG.
as §4

[6] = Escherichia coli, read-out: MBC of MER alone
[7] = Escherichia coli, read-out: MIC of MER alone

C[C@@H](O)[C@H]1C(=O)N2C(C(=O)O)=C(S[C@@H]3CN[C@H](C(=O)N(C)C)C3)[C@H](C)[C@H]12 [MER, meropenem]
MPC of MER alone (NDM-HK [1]): 32 folds of MIC | outcome of MER monotherapy in mice infected with NDM-HK PCV (NDM-HK PCV): cured all the mice | MBC ([2]; Klebsiella pneumoniae, read-out: MBC of MER alone): 16 µg/mL | MIC ([2]; Klebsiella pneumoniae, read-out: MIC of MER alone): 16 µg/mL | MBC of MER alone [2]: 16/16 µg mL^-1 | MIC of MER alone [2]: 16/16 µg mL^-1 | viable bacterial loads, cell-associated infection (NDM-HK [3]): ~10^6 CFU | MIC (NDM-BL21): 16 µg/mL | MIC (NDM-Rosetta): 32 µg/mL | MIC (NDM-Rosetta OX): 256 µg/mL | mice rescued at endpoint, MER monotherapy (NDM-HK [4]): two of the eight mice | MBC ([5]; Citrobacter freundii, read-out: MBC of MER alone): 8 µg/mL | MIC ([5]; Citrobacter freundii, read-out: MIC of MER alone): 8 µg/mL | MBC of MER alone [5]: 8/8 µg mL^-1 | MIC of MER alone [5]: 8/8 µg mL^-1 | MBC (IMP-BL21 (IMP-4^+); [6]): 32 µg/mL | MIC (IMP-BL21 (IMP-4^+); [7]): 32 µg/mL | MBC of MER alone (IMP-BL21 (IMP-4^+); IMP-BL21): 32/32 µg mL^-1 | MIC of MER alone (IMP-BL21 (IMP-4^+); IMP-BL21): 32/32 µg mL^-1 | MBC (VIM-BL21 (VIM-2^+); [6]): 32 µg/mL | MIC (VIM-BL21 (VIM-2^+); [7]): 32 µg/mL | MBC of MER alone (VIM-BL21 (VIM-2^+); VIM-BL21): 32/32 µg mL^-1 | MIC of MER alone (VIM-BL21 (VIM-2^+); VIM-BL21): 32/32 µg mL^-1 | MIC (NDM-HK (NDM-1^+); CBS0, read-out: MIC of MER alone): 16 µg/mL | MBC (NDM-HK (NDM-1^+); read-out: MBC of MER alone): 16 µg/mL | MIC (C208A-Rosetta): 0.12 µg/mL

Reference: publication PMC5789847, “Bismuth antimicrobial drugs serve as broad-spectrum metallo-β-lactamase inhibitors” (Nature Communications, 2018)
